Results taken from patent US20250296971A1, “GASTRIC INHIBITORY PEPTIDE RECEPTOR LIGANDS” (priority 2021, published 2025).
Where two headings read alike, the source gives them in different places. *1 amine or outer side, *2 acyl side, *3 side chain or, on linkers, in order; H or OH if unused. Where a SMILES comes first, the peptide text is derived from it. Bridges are numbered along the chain shown (N, C = ends). [ ]: non-standard residue; d: D form. The star is where a group is joined. X3 = O=C(O)CN1CCN(CC(=O)O)CCN(CC(=O)NCCCOCCOCCOCCCN*)CCN(CC(=O)O)CC1; NH(1-deoxy-D-glucityl) = OC[C@@H](O)[C@@H](O)[C@H](O)[C@@H](O)CN*; DOTA = O=C(O)CN1CCN(CC(=O)O)CCN(CC(=O)*)CCN(CC(=O)O)CC1; Trp(5-Cl) = N[C@@H](Cc1c[nH]c2ccc(Cl)cc12)C(=O)O; Trp(6-Cl) = N[C@@H](Cc1c[nH]c2cc(Cl)ccc12)C(=O)O; Pyridine(2,6-diCH2) = c1cc(C[*:1])nc(C[*:2])c1; Pro(4R-NH2) = N[C@H]1CN[C@H](C(=O)O)C1; 1Nal = N[C@@H](Cc1cccc2ccccc12)C(=O)O; mXylylene = c1cc(C[*:1])cc(C[*:2])c1; Glutaryl = O=C(CCCC(=O)[*:2])[*:1]; X7 = c1cc(CSCCN[*:2])cc(C[*:1])c1; Hyp = O=C(O)[C@@H]1C[C@@H](O)CN1; X1 = O=C(CN1CCC(N[*:1])CC1)[*:2]; Cha = N[C@@H](CC1CCCCC1)C(=O)O; Cit = NC(=O)NCCC[C@H](N)C(=O)O; Suc = O=C(CCC(=O)[*:2])[*:1]; Nle = CCCC[C@H](N)C(=O)O; Api = NC1(C(=O)O)CCNCC1; Thp = NC1(C(=O)O)CCOCC1; Aib = CC(C)(N)C(=O)O

Target: T1, GIPR (CHO-K1-hGIPR cells) (Homo sapiens, UniProt P48546)
T1 construct: host or cells: CHO-K1
T1 sequence (P48546 22-466): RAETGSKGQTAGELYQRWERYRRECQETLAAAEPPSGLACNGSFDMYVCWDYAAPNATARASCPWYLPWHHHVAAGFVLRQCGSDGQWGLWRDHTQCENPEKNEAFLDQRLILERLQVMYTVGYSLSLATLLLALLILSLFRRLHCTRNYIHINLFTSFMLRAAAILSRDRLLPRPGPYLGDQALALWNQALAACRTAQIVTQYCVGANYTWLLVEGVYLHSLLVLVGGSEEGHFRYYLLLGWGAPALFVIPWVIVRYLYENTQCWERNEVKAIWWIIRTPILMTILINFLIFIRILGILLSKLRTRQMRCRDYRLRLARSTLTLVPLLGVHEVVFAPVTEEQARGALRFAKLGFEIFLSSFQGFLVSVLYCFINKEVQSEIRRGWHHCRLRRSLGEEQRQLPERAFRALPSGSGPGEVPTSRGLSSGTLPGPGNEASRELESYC
Assay: FACS binding assay
Details: read-out: pIC50 Category (converted)
Summary of the method: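 Median fluorescence in the APC channel, measured on washed CHO-K1 cells overexpressing human GIPR, was fitted by four-parameter logistic regression against peptide concentration to yield EC50 or IC50 values. Secondary labelling used APC-streptavidin (1 μg/mL, 30 min, ice).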

[1] = competition with 20 nM GIP-057, 4° C. for 1 hour
[2] = competition with 20 nM GIP-057, 4° C., 1 hour

Row | SMILES | IC50 [1] | IC50 [2]
1 | CCCC[C@H](NC(=O)[C@H](CCC(=O)O)NC(=O)[C@@H]1CCCN1C(=O)[C@H](Cc1cccc2ccccc12)NC(=O)[C@H](Cc1c[nH]c2ccccc12)NC(=O)[C@H](CC(=O)O)NC(C)=O)C(=O)N[C@H]1CSCc2cccc(c2)CSC[C@@H](C(N)=O)NC(=O)[C@H]([C@@H](C)CC)NC(=O)[C@H](CC(C)C)NC(=O)C(C)(C)NC1=O [GIP-346, Ac-Asp-Trp-1Ni-Pro-Glu-Nle-[Cys(3MeBn)-Aib-Leu-Ile-Cys]-NH2] (Ac-DW[1Nal]PE[Nle]C[Aib]LIC-NH2; linker 7-11 via mXylylene) | > 1000 nM | –
2 | CC[C@H](C)[C@@H]1NC(=O)[C@H](CC(C)C)NC(=O)C2(CCN(C(=O)CN3CCN(CC(=O)O)CCN(CC(=O)O)CCN(CC(=O)O)CC3)CC2)NC(=O)[C@@H](NC(=O)[C@@H](CC(C)C)NC(=O)[C@H](CCC(=O)O)NC(=O)[C@@H]2C[C@@H](N)CN2C(=O)[C@H](Cc2c[nH]c3ccc(Cl)cc23)NC(=O)[C@H](Cc2c[nH]c3ccccc23)NC(=O)[C@H](CC(=O)O)NC(=O)CN2CCC(NC(=O)CCCC(=O)NC[C@H](O)[C@@H](O)[C@H](O)[C@H](O)CO)CC2)CSCc2cccc(n2)CSC[C@@H](C(=O)NC2CCN(CC(=O)N[C@H](CCC(=O)NC[C@H](O)[C@@H](O)[C@H](O)[C@H](O)CO)C(N)=O)CC2)NC1=O [GIP-013, AGLU-Glutar-APAc-Asp-Trp-5Clw-Tap-Glu-leu-[Cys(2Lut)-Apc(DOTA)-Leu-Ile-Cys]-APAc-glu(AGLU)-NH2] ({NH(1-deoxy-D-glucityl)-Glutaryl}-[X1]DW[Trp(5-Cl)][Pro(4R-NH2)]E[dL]C[Api](DOTA)LIC[X1][dE](NH(1-deoxy-D-glucityl))-NH2; linker 8-12 via Pyridine(2,6-diCH2)) | – | < 10 nM
3 | CC[C@H](C)[C@@H]1NC(=O)[C@H](CC2CCCCC2)NC(=O)C2(CCOCC2)NC(=O)[C@@H](NC(=O)[C@@H](CC(C)C)NC(=O)[C@H](CCC(=O)O)NC(=O)[C@@H]2C[C@@H](O)CN2C(=O)[C@H](Cc2c[nH]c3ccc(Cl)cc23)NC(=O)[C@H](Cc2c[nH]c3ccccc23)NC(=O)[C@H](CC(=O)O)NC(C)=O)CSCc2cccc(n2)CSC[C@@H](C(N)=O)NC1=O [GIP-383, Ac-Asp-Trp-5Clw-Hyp-Glu-leu-[Cys(2Lut)-Thp-Cha-Ile-Cys]-NH2] (Ac-DW[Trp(5-Cl)][Hyp]E[dL]C[Thp][Cha]IC-NH2; linker 7-11 via Pyridine(2,6-diCH2)) | < 10 nM | –
4 | CC[C@H](C)[C@@H]1NC(=O)[C@H](CC(C)C)NC(=O)C(C)(C)NC(=O)[C@@H](NC(=O)[C@H](CCCNC(N)=O)NC(=O)[C@H](CCC(=O)O)NC(=O)[C@@H]2CCCN2C(=O)[C@H](Cc2cccc3ccccc23)NC(=O)[C@H](Cc2c[nH]c3ccccc23)NC(=O)[C@H](CC(=O)O)NC(C)=O)CSCc2cccc(c2)CSC[C@@H](C(N)=O)NC1=O [GIP-347, Ac-Asp-Trp-1Ni-Pro-Glu-Cit-[Cys(3MeBn)-Aib-Leu-Ile-Cys]-NH2] (Ac-DW[1Nal]PE[Cit]C[Aib]LIC-NH2; linker 7-11 via mXylylene) | > 1000 nM | –
5 | CC[C@H](C)[C@@H]1NC(=O)[C@H](CC(C)C)NC(=O)C(C)(C)NC(=O)[C@@H](NC(=O)[C@H](CC(C)C)NC(=O)[C@H](CCC(=O)O)NC(=O)[C@@H]2CCCN2C(=O)[C@H](Cc2c[nH]c3ccccc23)NC(=O)[C@H](Cc2c[nH]c3ccccc23)NC(=O)[C@H](CC(=O)O)NC(C)=O)CSCc2cccc(c2)CSCCNC1=O [GIP-251, Ac-Asp-Trp-Tip-Pro-Glu-Leu-[Cys(3MeBn)-Aib-Leu-Ile-AET]] (Ac-DWWPELC[Aib]LI; linker 7-C via X7) | 10 to 79.4 nM | –
6 | CC[C@H](C)[C@@H]1NC(=O)[C@H](CC(C)C)NC(=O)C(C)(C)NC(=O)[C@@H](NC(=O)[C@@H](CC(C)C)NC(=O)[C@H](CCC(=O)O)NC(=O)[C@@H]2CCCN2C(=O)[C@H](Cc2c[nH]c3ccccc23)NC(=O)[C@H](Cc2c[nH]c3cc(Cl)ccc23)NC(=O)[C@H](CC(=O)O)NC(=O)CCC(=O)NCCCOCCOCCOCCCNC(=O)CN2CCN(CC(=O)O)CCN(CC(=O)O)CCN(CC(=O)O)CC2)CSCc2cccc(c2)CSCCNC1=O [GIP-141, DOTA-Ttds-Asp-6Clw-Trp-Pro-Glu-leu-[Cys(3MeBn)-Aib-Leu-Ile-AET]] ({X3-Suc}-D[Trp(6-Cl)]WPE[dL]C[Aib]LI; linker 7-C via X7) | – | 10 to 79.4 nM
